In general, IC50 refers to the concentration that inhibits the measured activity by half.

We go through 1 compound from PMC9500845, “New Anticancer Theobromine Derivative Targeting EGFR^WT and EGFR^T790M: Design, Semi-Synthesis, In Silico, and In Vitro Anticancer Studies” (Molecules, 2022).

The assay deals with EGFR (Homo sapiens, UniProt P00533). Briefly: in vitro EGFR enzyme inhibition, Human EGFR ELISA kit. Format: biochemical.
Chain of EGFR (P00533 25-1210): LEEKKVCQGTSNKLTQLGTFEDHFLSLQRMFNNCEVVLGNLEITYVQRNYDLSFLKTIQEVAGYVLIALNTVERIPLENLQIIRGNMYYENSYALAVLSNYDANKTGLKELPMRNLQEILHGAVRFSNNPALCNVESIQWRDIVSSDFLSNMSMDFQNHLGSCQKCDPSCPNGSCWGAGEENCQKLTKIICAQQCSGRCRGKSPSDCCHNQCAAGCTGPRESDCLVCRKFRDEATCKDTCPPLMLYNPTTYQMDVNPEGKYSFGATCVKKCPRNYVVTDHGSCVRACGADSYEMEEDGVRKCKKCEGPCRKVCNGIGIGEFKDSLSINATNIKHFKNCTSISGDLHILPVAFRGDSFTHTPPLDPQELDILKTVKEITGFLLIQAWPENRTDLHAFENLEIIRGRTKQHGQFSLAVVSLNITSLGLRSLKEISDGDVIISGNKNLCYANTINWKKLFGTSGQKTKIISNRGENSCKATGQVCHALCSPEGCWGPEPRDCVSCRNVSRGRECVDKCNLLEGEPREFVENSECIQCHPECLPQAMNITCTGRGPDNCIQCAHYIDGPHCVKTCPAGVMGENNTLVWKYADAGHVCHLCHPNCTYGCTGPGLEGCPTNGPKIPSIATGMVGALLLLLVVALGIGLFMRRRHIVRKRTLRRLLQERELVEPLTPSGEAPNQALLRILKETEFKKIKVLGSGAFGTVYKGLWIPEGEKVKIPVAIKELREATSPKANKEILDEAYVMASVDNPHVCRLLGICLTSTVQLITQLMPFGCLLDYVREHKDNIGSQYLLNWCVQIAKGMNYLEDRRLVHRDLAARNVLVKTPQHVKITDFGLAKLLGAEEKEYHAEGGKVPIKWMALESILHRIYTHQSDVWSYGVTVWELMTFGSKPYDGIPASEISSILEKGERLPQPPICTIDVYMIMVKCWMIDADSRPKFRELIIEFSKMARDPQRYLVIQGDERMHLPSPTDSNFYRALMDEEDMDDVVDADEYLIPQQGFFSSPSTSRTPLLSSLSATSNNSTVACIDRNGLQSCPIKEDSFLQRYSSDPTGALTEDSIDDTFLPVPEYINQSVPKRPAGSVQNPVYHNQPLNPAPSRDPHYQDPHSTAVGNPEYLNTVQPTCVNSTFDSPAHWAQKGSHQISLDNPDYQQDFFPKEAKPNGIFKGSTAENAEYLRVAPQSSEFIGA

With `Cn1cnc2c1c(=O)n(CC(=O)NCc1ccccc1)c(=O)n2C` [XI, N-Benzyl-2-(3,7-dimethyl-2,6-dioxo-2,3,6,7-tetrahydro-1H-purin-1-yl)acetamide], the IC50 came to 17.2 nM.
